Test results published in ChEMBL document CHEMBL3046427, “Wound healing phytoconstituents from seed kernel of Entada pursaetha DC. and their molecular docking studies with glycogen synthase kinase 3-” (2012).
Activity calls are given as the source filed them. No cut-off for these calls is given here.

Legend:
Rattus norvegicus [1] = experiment: Wound healing activity in Rattus norvegicus Swiss albino Wistar (rat) excision wound model assessed as wound closure at 0.2% w/v administered topically measured on day 16 post-wounding (reference value: 83.31 +/- 1.06%); assay type: functional
Rattus norvegicus [2] = experiment: Wound healing activity in Rattus norvegicus Swiss albino Wistar (rat) dead space wound model assessed as tissue breaking strength at 5 mg/ml, po measured on day 10 post-wounding (reference value: 260.83 +/- 14.05 g); assay type: functional
Rattus norvegicus [3] = experiment: Wound healing activity in Rattus norvegicus Swiss albino Wistar (rat) excision wound model assessed as wound closure at 0.2% w/v administered topically measured on day 12 post-wounding (reference value: 69.04 +/- 1.05%); assay type: functional
Rattus norvegicus [4] = experiment: Wound healing activity in Rattus norvegicus Swiss albino Wistar (rat) excision wound model assessed as time of epithelialization at 0.2% w/v administered topically (reference value: 24 +/- 0.26 days); assay type: functional
Rattus norvegicus [5] = experiment: Wound healing activity in Rattus norvegicus Swiss albino Wistar (rat) dead space wound model assessed as granular tissue weight per 100 g tissue at 5 mg/ml, po measured on day 10 post-wounding (reference value: 31 +/- 0.93 mg); assay type: functional
Rattus norvegicus [6] = experiment: Wound healing activity in Rattus norvegicus Swiss albino Wistar (rat) incision wound model assessed as skin breaking strength at 5 mg/ml, po measured on day 10 post-wounding by tensiometric analysis (reference value: 400 +/- 28.87 g); assay type: functional
Rattus norvegicus [7] = experiment: Wound healing activity in Rattus norvegicus Swiss albino Wistar (rat) dead space wound model assessed as hydroxyproline content per 100 g tissue at 5 mg/ml, po measured on day 10 post-wounding by Neuman-Logan method (reference value: 1369.67 +/- 10.54 ug); assay type: functional
Rattus norvegicus [8] = experiment: Wound healing activity in Rattus norvegicus Swiss albino Wistar (rat) excision wound model assessed as wound closure at 0.2% w/v administered topically measured on day 8 post-wounding (reference value: 48.75 +/- 1.34%); assay type: functional
Rattus norvegicus [9] = experiment: Wound healing activity in Rattus norvegicus Swiss albino Wistar (rat) excision wound model assessed as wound closure at 0.2% w/v administered topically measured on day 4 post-wounding (reference value: 25.59 +/- 1.79%); assay type: functional
Rattus norvegicus [10] = experiment: Wound healing activity in Rattus norvegicus Swiss albino Wistar (rat) dead space wound model assessed as hydroxyproline content per 100 g tissue at 10 mg/ml, po measured on day 10 post-wounding by Neuman-Logan method (reference value: 1369.67 +/- 10.54 ug); assay type: functional
Rattus norvegicus [11] = experiment: Wound healing activity in Rattus norvegicus Swiss albino Wistar (rat) dead space wound model assessed as tissue breaking strength at 10 mg/ml, po measured on day 10 post-wounding (reference value: 260.83 +/- 14.05 g); assay type: functional
Rattus norvegicus [12] = experiment: Wound healing activity in Rattus norvegicus Swiss albino Wistar (rat) dead space wound model assessed as decrease in macrophages at 10 mg/ml, po measured on day 10 post-wounding by histological analysis relative to control; assay type: functional, organism-based
Rattus norvegicus [13] = experiment: Wound healing activity in Rattus norvegicus Swiss albino Wistar (rat) dead space wound model assessed as increase in collagenation of granulation tissue at 10 mg/ml, po measured on day 10 post-wounding by histological analysis relative to control; assay type: functional, organism-based
Rattus norvegicus [14] = experiment: Wound healing activity in Rattus norvegicus Swiss albino Wistar (rat) incision wound model assessed as skin breaking strength at 10 mg/ml, po measured on day 10 by tensiometric analysis (reference value: 400 +/- 28.87 g); assay type: functional
Rattus norvegicus [15] = experiment: Wound healing activity in Rattus norvegicus Swiss albino Wistar (rat) dead space wound model assessed as granular tissue weight per 100 g tissue at 10 mg/ml, po measured on day 10 post-wounding (reference value: 31 +/- 0.93 mg); assay type: functional
Rattus norvegicus [16] = experiment: Wound healing activity in po dosed Rattus norvegicus Swiss albino Wistar (rat) incision wound model assessed as skin breaking strength measured on day 10 post-wounding by tensiometric analysis (reference value: 400 +/- 28.87 g); assay type: functional
Rattus norvegicus [17] = experiment: Wound healing activity in Rattus norvegicus Swiss albino Wistar (rat) incision wound model assessed as skin breaking strength at 15 mg/ml, po measured on day 10 post-wounding by tensiometric analysis (reference value: 400 +/- 28.87 g); assay type: functional
Rattus norvegicus [18] = experiment: Wound healing activity in Rattus norvegicus Swiss albino Wistar (rat) dead space wound model assessed as hydroxyproline content per 100 g tissue at 15 mg/ml, po measured on day 10 post-wounding by Neuman-Logan method (reference value: 1369.67 +/- 10.54 ug); assay type: functional
Rattus norvegicus [19] = experiment: Wound healing activity in Rattus norvegicus Swiss albino Wistar (rat) dead space wound model assessed as granular tissue weight per 100 g tissue at 15 mg/ml, po measured on day 10 post-wounding (reference value: 31 +/- 0.93 mg); assay type: functional
Rattus norvegicus [20] = experiment: Wound healing activity in Rattus norvegicus Swiss albino Wistar (rat) dead space wound model assessed as tissue breaking strength at 15 mg/ml, po measured on day 10 post-wounding (reference value: 260.83 +/- 14.05 g); assay type: functional

| Structure (SMILES) | Activity (Rattus norvegicus [1]) | Activity (Rattus norvegicus [2]) | Activity (Rattus norvegicus [3]) | Time (Rattus norvegicus [4]) | Activity (Rattus norvegicus [5]) | Activity (Rattus norvegicus [6]) | Activity (Rattus norvegicus [7]) | Activity (Rattus norvegicus [8]) | Activity (Rattus norvegicus [9]) | Activity (Rattus norvegicus [10]) | Activity (Rattus norvegicus [11]) | Activity (Rattus norvegicus [12]) | Activity (Rattus norvegicus [13]) | Activity (Rattus norvegicus [14]) | Activity (Rattus norvegicus [15]) | Activity (Rattus norvegicus [16]) | Activity (Rattus norvegicus [17]) | Activity (Rattus norvegicus [18]) | Activity (Rattus norvegicus [19]) | Activity (Rattus norvegicus [20]) |
| --- | --- | --- | --- | --- | --- | --- | --- | --- | --- | --- | --- | --- | --- | --- | --- | --- | --- | --- | --- | --- |
| CS/C=C/C(=O)NCCO [ENTADAMIDE] | 92.22% | 463.33 g | 71.27% | 19.92 days | 50.75 mg | 533.5 g | 1891.17 µg | 57.32% | 28.28% | – | – | – | – | – | – | – | – | – | – | – |
| CC1(C)CC[C@]2(C(=O)O)[C@H](O)[C@H](O)[C@]3(C)C(=CC[C@@H]4[C@@]5(C)CC[C@H](O)C(C)(C)[C@@H]5CC[C@]43C)[C@@H]2C1 [ENTAGENIC ACID] | 96.08% | – | 76.38% | 18.08 days | – | – | – | 65.21% | 33.39% | 2001.33 µg | 549.83 g | Active | Active | 655.67 g | 53.11 mg | – | – | – | – | – |
| NC(=O)N/N=C/c1ccc([N+](=O)[O-])o1 [NITROFURAZONE] | 97.64% | – | 91.32% | 16.33 days | – | – | – | 80.7% | 41.46% | – | – | – | – | – | – | 683.33 g | – | – | – | – |
| O=C(O)Cc1cc(O)ccc1O[C@@H]1O[C@H](CO)[C@@H](O)[C@H](O)[C@H]1O [PHASEOLOIDIN] | 88.5% | – | 70.08% | 21.16 days | – | – | – | 52.15% | 27.08% | – | – | – | – | – | – | – | 490.33 g | 1690.33 µg | 43.92 mg | 450.17 g |
